Data published in US10800812B2, “Compstatin analogs with increased solubility and improved pharmacokinetic properties” (The Trustees of the University of Pennsylvania, priority 2018, dated 2020).
Where “and” joins values, the source holds several entries; their conditions need not be identical. Equal entries are not always repeated. Where two headings read alike, the source gives them in different places. Marks after values point to notes of the source that are not given here.

What was measured:
[1] = Plasma concentration after multiple injections in NHP; format: in vivo, cynomolgus monkeys; conditions: cynomolgus monkey, sc
[2] = Residence time in the vitreous after intravitreal injection (WES / SPR competition assay); format: in vivo, cynomolgus monkeys; design: detection in the vitreous: dose or concentration left out as unconfirmed; conditions: for detection in the vitreous at time points post-injection: days 14-90
Method: To determine the residence time of mPEG(3k)-Cp40, mPEG(1k)-Cp40, Cp40-KK, and Cp40-KKK in the vitreous of cynomolgus macaques, these Cp40-based analogs were administered intravitreally (i.v.t.) to the animals after induction of light ketamine anesthesia (10-15 mg/kg, by intramuscular injection (i.m.)) and dilation of the pupils with tropicamide/phenylephrine ophthalmic solution (see Table 6 for study design).
For i.v.t. injection, the cynomolgus monkeys were anesthetized with a combination of ketamine (15-25 mg/kg, i.m.) and xylazine (2 mg/kg, i.m.) and the eye was cleaned with povidone-iodine solution. After application of oxybuprocaine hydrochloride solution (Benoxil® ophthalmic solution 0.4%) to the cornea as a local anesthetic, the Cp40-based analogs were administered to the animals by i.v.t. injection into either the right (G1, G3) or left (G2, G4) eye of each animal. Immediately following each injection, a single topical dose of 0.5% levofloxacin was administered. After i.v.t. injection of mPEG(3k)-Cp40, mPEG(1k)-Cp40, Cp40-KK, and Cp40-KKK, vitreous fluid samples (about 50 μL each) were withdrawn from Cp40-based analog-treated eyes on days 14, 28, 42, (G1, G2, G3, G4), 56, 73, 90 (G1, G2) (this was done either three times or six times). Samples were collected on ice and stored in a deep freezer (−79.3 to −68.5° C.) until further analysis. On day 73 and 90, about 100 μL of vitreous fluid from G1 and G2 were withdrawn. Presence and concentration of the Cp40-based analogs was determined using either the simple western technology (WES, ProteinSimple, San Jose, Calif.), or surface plasmon resonance (SPR)-based real-time measurement of binding kinetics on a Cp40-KKK immobilized chip (see detailed methods below). Similar results with regard to the intravitreal residence time and concentration levels of the test compounds were obtained regardless of the quantification method selected.
To quantify the levels of all test compounds in vitreous samples collected at different time points following i.v.t. injection (see FIG. 15), WES analysis was performed on a WES instrument (ProteinSimple, San Jose, Calif.) using a 2 to 40 kDa Separation Module and Anti-Rabbit Detection Module according to the manufacturers' instructions. In brief, undiluted eye vitreous samples were mixed with a Fluorescent Master Mix and heated at 95° C. for 5 min. The samples, blocking reagent, primary antibodies (in house developed anti-Cp40; 1:1000 in blocking reagent), HRP-conjugated secondary antibody (anti-rabbit IgG) and chemiluminescent substrate were pipetted into the plate (part of Separation Module). The used instrument settings were: stacking and separation at 375 V for 27 min; blocking reagent for 30 min, primary and secondary antibody both for 30 min; Luminol/peroxide chemiluminescence detection for ˜15 min (exposures of 5, 15, 30, 60, 120, 240, and 480 s). The resulting electropherograms were evaluated using the Compass software (ProteinSimple, San Jose, Calif.). The following criteria were used to discriminate low peptide signals from background: The peak signal-to-noise (S/N) ratio given by the software must be ≥10, and the peak height/baseline ratio (calculated manually from the peak height and baseline values given by the software) must be equal to or greater than 3. A five-point standard curve of known concentrations (100-2,000 nM) of peptide spiked in rabbit vitreous was used to calculate peptide concentration in the vitreous samples using the Compass software (Compass Software Inc., Atlanta, Ga.). […] Shown in FIG. 15 is a representative standard curve generated using the WES system and bands obtained upon running pre-determined amounts of purified peptide spiked into rabbit vitreous samples.
To corroborate the WES-based measurements for all test compounds, an SPR-based competition assay was developed for detecting Cp40 and Cp40 analogs in biological samples. […] The samples were heated at 95° C. for 5 min. […]

[3] = system: classical pathway activation (C3b deposition); experiment: Classical pathway activation ELISA (C3b deposition) with or without rabbit vitreous; format: biochemical, human; conditions: in the absence of vitreous
Method: An alternative explanation to the one presented above is that the vitreous contains additional unidentified factors that associate with the Cp40-KKK analog. To investigate whether an unidentified vitreous factor impacts the complement inhibitory activity of lysine containing compounds, complement activation assays were performed using vitreous samples. Briefly, human plasma was incubated with OVA-anti-OVA immune-complexes in the presence of serial dilutions of the Cp40-based analogs mixed with rabbit vitreous. Levels of classical pathway activation (C3b deposition) were determined by ELISA using a polyclonal anti-human C3 antibody conjugated with HRP (MP Biomedicals, Solon, Ohio) (FIG. 20).

C3 [4] = molecular target: C3 (Homo sapiens, UniProt P01024); conditions: Qu et al. 2013; cited from earlier work
in vivo [5] = conditions: male, cynomolgus monkey, sc, 2 mg/kg, t1/2
in vivo [6] = conditions: cynomolgus monkey, im, 25 mg/kg
physchem = conditions: pH 7.4, Conc. (solubility in PBS)
[7] = Solubility of Cp40-based analogs in PBS
[8] = Pharmacokinetics in NHP plasma after single s.c. injection; conditions: for AUC(0-t): AUC0-t (0-120 h); for AUC(0-inf): AUCinf
human C3b = molecular target: T1, human C3b (Homo sapiens, UniProt P01024); experiment: SPR binding affinity and kinetics with C3b; conditions: 25° C., 1:1 Langmuir model; read-out: ka, association constant
T1 construct: purchased Complement Technology, Inc., Tyler, Tex

[9] = Lys cleavage fragments in NHP plasma after s.c. injection (UPLC-ESI-MS); format: in vivo, cynomolgus monkeys; conditions: after s.c. 2 mg/kg Cp40-KKK, both animals
[10] = Pharmacokinetics after single i.v. injection; design: species or system cynomolgus monkeys; conditions: cynomolgus monkey, in vivo, iv
Method: In vivo pharmacokinetic studies were conducted, in which cynomolgus monkeys were administered single i.v. injections of mPEG(1k)-Cp40, mPEG(3k)-Cp40, Cp40-KK, or Cp40-KKK.

purified human C3b = molecular target: T2, purified human C3b (Homo sapiens, UniProt P01024); experiment: SPR C3b binding of Cp40-KKK in vitreous samples; conditions: for C3b-binding signal: day 14
T2 construct: purchased Complement Technology, Inc., Tyler, Tex
Method: To confirm that the compound present in the NHP vitreous maintains C3b-binding activity, which is a prerequisite for eliciting its inhibitory action across all complement pathways, surface plasmon resonance (SPR) binding experiments were conducted. Briefly, for a positive binding control, serial dilutions of Cp40-KKK (16, 8, 4, and 2 nM) were added to rabbit vitreous samples and flowed onto a Biacore CM5 chip immobilized with purified human C3b (Complement Technology Inc, Tyler, Tex.) (see FIG. 19A). Next, vitreous samples were collected from a Cp40-KKK injected eye at day 14 post-injection and subjected to heat-inactivation at 95° C. for 5 min. Both heat-inactivated and non-heat-inactivated samples were flowed onto a CM5 chip immobilized with purified human C3b as indicated above (FIG. 19B).

[11] = Pharmacokinetics after single i.m. injection; conditions: cynomolgus monkey, in vivo, im, 25 mg/kg
C3 [12] = experiment: C3 saturation in NHP plasma after single s.c. injection; format: in vivo, cynomolgus monkeys (Macaca fascicularis); conditions: single s.c. 2 mg/kg
[13] = cynomolgus monkey, in vivo, sc, 2 mg/kg
[14] = at the solubility concentration
[15] = male, cynomolgus monkey, plasma, sc, 2 mg/kg, single s.c. 2 mg/kg, NHP plasma, two animals
[16] = male, cynomolgus monkey, plasma, sc, 2 mg/kg, Cmax, single s.c. 2 mg/kg, NHP plasma, two animals
[17] = single s.c. 2 mg/kg, NHP plasma, two animals, 2 mg/kg
[18] = single s.c. 2 mg/kg, NHP plasma, two animals, listed as Cp40-KKK (SUM), 2 mg/kg

T2 sequence (P01024 23-667 limits assumed): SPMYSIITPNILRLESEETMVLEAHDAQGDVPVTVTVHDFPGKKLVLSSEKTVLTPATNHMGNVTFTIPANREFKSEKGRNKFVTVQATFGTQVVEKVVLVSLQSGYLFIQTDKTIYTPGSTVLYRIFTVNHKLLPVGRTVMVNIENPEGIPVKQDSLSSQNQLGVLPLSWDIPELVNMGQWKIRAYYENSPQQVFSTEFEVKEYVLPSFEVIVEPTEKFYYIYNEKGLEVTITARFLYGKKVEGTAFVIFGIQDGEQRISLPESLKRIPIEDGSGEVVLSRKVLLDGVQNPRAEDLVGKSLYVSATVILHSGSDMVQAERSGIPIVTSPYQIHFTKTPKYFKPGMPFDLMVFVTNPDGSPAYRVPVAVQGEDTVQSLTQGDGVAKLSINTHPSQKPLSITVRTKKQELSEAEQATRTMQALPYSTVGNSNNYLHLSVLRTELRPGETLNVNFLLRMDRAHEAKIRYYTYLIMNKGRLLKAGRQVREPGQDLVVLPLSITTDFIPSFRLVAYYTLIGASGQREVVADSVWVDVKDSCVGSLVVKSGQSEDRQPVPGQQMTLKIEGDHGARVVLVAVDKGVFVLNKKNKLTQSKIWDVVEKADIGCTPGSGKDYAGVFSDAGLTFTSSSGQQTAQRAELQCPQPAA
T2 sequence (P01024 749-1663 partner limits assumed): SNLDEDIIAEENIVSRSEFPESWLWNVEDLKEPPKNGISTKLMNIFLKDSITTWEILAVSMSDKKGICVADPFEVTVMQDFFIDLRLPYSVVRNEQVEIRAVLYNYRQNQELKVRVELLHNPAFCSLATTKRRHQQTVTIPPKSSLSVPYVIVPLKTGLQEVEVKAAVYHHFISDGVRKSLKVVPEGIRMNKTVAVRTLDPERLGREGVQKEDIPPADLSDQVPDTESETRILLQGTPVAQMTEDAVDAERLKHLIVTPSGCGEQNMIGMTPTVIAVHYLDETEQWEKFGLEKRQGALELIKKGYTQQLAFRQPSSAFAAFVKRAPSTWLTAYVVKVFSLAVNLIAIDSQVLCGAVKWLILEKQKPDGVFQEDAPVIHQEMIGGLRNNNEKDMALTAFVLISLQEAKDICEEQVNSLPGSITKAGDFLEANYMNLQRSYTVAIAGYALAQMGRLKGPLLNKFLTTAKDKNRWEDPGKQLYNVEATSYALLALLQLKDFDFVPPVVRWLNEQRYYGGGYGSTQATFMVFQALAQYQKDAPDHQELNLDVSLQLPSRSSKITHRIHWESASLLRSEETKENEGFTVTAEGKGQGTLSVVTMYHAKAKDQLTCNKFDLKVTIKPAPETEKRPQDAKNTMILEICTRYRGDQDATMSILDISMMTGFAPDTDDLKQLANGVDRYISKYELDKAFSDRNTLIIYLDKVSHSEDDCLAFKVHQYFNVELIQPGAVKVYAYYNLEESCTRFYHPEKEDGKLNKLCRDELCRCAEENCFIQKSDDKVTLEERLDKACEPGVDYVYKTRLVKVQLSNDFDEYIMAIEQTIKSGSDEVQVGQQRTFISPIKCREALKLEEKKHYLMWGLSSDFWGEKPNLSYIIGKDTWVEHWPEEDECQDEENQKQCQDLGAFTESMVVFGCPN
Chain of C3 (Homo sapiens, UniProt P01024) (P01024 23-1663): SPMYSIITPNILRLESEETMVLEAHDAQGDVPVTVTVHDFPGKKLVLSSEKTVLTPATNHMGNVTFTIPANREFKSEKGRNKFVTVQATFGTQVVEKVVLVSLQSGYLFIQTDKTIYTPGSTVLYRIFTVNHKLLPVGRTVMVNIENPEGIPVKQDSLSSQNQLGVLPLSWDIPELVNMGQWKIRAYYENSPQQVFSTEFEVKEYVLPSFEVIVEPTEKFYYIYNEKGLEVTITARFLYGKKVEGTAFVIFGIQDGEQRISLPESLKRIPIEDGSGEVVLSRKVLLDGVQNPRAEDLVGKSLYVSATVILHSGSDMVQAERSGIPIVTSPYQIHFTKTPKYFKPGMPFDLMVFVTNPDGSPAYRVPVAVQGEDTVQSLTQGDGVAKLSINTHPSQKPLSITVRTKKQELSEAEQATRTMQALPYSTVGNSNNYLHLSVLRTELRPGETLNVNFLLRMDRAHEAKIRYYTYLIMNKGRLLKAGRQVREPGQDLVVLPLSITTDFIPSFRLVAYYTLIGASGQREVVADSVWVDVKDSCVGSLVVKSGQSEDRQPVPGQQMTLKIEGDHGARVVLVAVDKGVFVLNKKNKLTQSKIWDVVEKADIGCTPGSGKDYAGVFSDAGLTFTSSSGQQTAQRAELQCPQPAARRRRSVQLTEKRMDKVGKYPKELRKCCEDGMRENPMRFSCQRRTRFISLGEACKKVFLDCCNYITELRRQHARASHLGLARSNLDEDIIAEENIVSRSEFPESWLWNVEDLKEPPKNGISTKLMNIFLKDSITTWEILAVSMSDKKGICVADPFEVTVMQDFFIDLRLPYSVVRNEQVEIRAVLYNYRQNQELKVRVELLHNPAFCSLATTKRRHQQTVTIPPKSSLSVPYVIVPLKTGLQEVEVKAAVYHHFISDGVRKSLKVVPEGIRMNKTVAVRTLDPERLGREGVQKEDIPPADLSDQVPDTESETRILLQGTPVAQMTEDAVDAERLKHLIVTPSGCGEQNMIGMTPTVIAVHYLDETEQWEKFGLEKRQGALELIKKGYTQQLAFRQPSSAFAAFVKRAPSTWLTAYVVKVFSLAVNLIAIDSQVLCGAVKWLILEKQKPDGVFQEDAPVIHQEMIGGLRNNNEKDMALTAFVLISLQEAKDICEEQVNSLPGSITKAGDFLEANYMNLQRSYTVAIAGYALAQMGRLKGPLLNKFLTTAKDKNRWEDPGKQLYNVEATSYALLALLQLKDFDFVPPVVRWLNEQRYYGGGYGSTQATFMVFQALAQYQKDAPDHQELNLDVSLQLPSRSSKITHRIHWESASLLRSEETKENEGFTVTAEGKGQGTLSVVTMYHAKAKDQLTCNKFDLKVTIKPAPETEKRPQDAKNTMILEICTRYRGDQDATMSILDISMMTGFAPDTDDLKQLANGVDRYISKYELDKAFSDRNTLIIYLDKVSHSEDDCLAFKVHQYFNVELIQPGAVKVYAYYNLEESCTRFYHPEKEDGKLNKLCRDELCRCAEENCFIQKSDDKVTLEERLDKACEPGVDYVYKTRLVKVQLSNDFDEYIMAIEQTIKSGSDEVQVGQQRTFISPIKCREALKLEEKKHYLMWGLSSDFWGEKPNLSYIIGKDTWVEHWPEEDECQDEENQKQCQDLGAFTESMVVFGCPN
T1 sequence (P01024 23-667 limits assumed): as the sequence (P01024 23-667 limits assumed) above
T1 sequence (P01024 749-1663 partner limits assumed): as the sequence (P01024 749-1663 partner limits assumed) above

Molecule: CC[C@H](C)[C@H](NC(=O)[C@H](N)Cc1ccc(O)cc1)C(=O)N[C@H]1CSSC[C@@H](C(=O)N(C)[C@H](C(N)=O)[C@@H](C)CC)NC(=O)[C@H](CCCNC(=N)N)NC(=O)[C@H](Cc2c[nH]cn2)NC(=O)[C@H](C)NC(=O)CN(C)C(=O)[C@H](Cc2c[nH]c3ccccc23)NC(=O)[C@H](CC(=O)O)NC(=O)[C@H](CCC(N)=O)NC(=O)[C@H](Cc2cn(C)c3ccccc23)NC(=O)[C@H](C(C)C)NC1=O [Cp40, DTyr-Ile-[Cys-Val-Trp(Me)-Gln-Asn-Trp-Sar-Ala-His-Arg-Cys]-mIle-NH2, reference compound]
- Cmax ([1]; in vivo, 4 mg/kg): 8 to 10 µM
- detection in the vitreous ([2]; Cp40 i.v.t administered): no detection of any compound was observed after one month
- complement classical pathway inhibitory activity [3]: inhibitory activity in a dose-dependent manner
- binding affinity for C3 (C3 [4]): subnanomolar
- binding affinity for C3 higher than that of the parent peptide (C3 [4]): ~6,000 fold
- half-life (in vivo [5]): 41 h
- half-life (in vivo [6]): ~192 h
- solubility (physchem): ≥ 1.08 mg/mL
- pH of the peptide solution in PBS [7, 14]: 7.5
- AUC(0-t) [8, 15]: 233 µM·h
- AUC(0-inf) [8, 15]: 263 µM·h
- Cmax [8, 16]: 6.2 µM
- Tmax ([8]; male, cynomolgus monkey, plasma, sc, 2 mg/kg, tmax, single s.c. 2 mg/kg, NHP plasma, two animals): 2 h
- AUC0-t (0-120 h) [8, 17]: 218 µM·h
- AUCinf [8, 17]: 255 µM·h
- Cmax [8, 17]: 5.53 µM

Molecule: CC[C@H](C)[C@H](NC(=O)[C@H](N)Cc1ccc(O)cc1)C(=O)N[C@H]1CSSC[C@@H](C(=O)N(C)[C@H](C(=O)N[C@@H](CCCCN)C(=O)N[C@@H](CCCCN)C(=O)N[C@@H](CCCCN)C(N)=O)[C@@H](C)CC)NC(=O)[C@H](CCCNC(=N)N)NC(=O)[C@H](Cc2c[nH]cn2)NC(=O)[C@H](C)NC(=O)CN(C)C(=O)[C@H](Cc2c[nH]c3ccccc23)NC(=O)[C@H](CC(=O)O)NC(=O)[C@H](CCC(N)=O)NC(=O)[C@H](Cc2cn(C)c3ccccc23)NC(=O)[C@H](C(C)C)NC1=O [Cp40-KKK, DTyr-Ile-[Cys-Val-Trp(Me)-Gln-Asn-Trp-Sar-Ala-His-Arg-Cys]-mIle-Lys-Lys-Lys-NH2]
- kon (human C3b): 3.83e+06 M⁻¹ s⁻¹
- concentration of intact Cp40-KKK in plasma at any time point [9]: ≤ 2 µM
- Cmax ([1]; plasma, 2 mg/kg every 48 hrs, read-out: observed Cmax after multiple s.c. dosing): ≥ 20 µM
- Lys cleavage in plasma upon i.v. injection [10]: metabolized into Cp40-KK and small amounts of Cp40-K
- half-life ([10]; single i.v. injection 2 mg/kg): 35.3 h
- AUC(0-t) ([10]; single i.v. injection 2 mg/kg, read-out: AUC 0-120): 312 µM·h
- intravitreal residence time ([2]; after i.v.t.): ≥ 3 months
- vitreous residence time at C3 saturating levels ([2]; single i.v.t. injection 0.5 mg): ≥ 90 days
- detection in the vitreous at time points post-injection ([2]; single i.v.t. injection 0.5 mg): detected even at day 90 post-treatment
- C3b-binding signal (purified human C3b; heat-inactivated vitreous sample): 10 relative units
- C3b-binding signal (purified human C3b; non-heat inactivated vitreous sample): 2 relative units
- binding to C3b (purified human C3b; spiked into rabbit vitreous, 2-16 nM): binds to C3b in a dose-dependent manner
- C3b-binding activity of compound present in NHP vitreous (purified human C3b; vitreous from injected eye, day 14 post-injection): maintains its C3b-binding activity
- complement classical pathway inhibitory activity [3]: inhibitory activity in a dose-dependent manner
- pH of the peptide solution in PBS ([7]; after additional lyophilization from H2O): 9.5
- pH of the peptide solution in PBS [7, 14]: 8.5
- pH of the peptide solution in PBS ([7]; pH adjusted upon addition of PBS): 7.5*
- half-life [11]: ~192 h
- CL/F ([8]; male, cynomolgus monkey, plasma, sc, 2 mg/kg): ~45 mL/min/kg
- AUC(0-t) [8, 15]: ~616 µM·h
- AUC(0-inf) [8, 15]: 805 µM·h
- Cmax [8, 16]: ~13.5 µM
- half-life ([8]; male, cynomolgus monkey, plasma, sc, 2 mg/kg, t1/2, single s.c. 2 mg/kg, NHP plasma, two animals): ~44.3 h
- AUC0-t increased vs Cp40 ([8]; s.c. 2 mg/kg): ~2.6 fold
- CL/F decreased vs Cp40 ([8]; s.c. 2 mg/kg): ~3 fold
- cmax higher than Cp40 ([8]; s.c. 2 mg/kg): ~2 fold
- t1/2 [8, 17]: 42 h and 47 h
- AUC0-t (0-120 h) [8, 18]: 658 µM·h and 573 µM·h
- AUCinf [8, 18]: 685 µM·h
- Cmax [8, 18]: 11.9 µM and 15.1 µM
- t1/2 [8, 18]: 46.7 h and 41.8 h

Molecule: mPEG(3k)-Cp40: N-terminus of Cp40 coupled to polydisperse PEG chain of 3 kDa via amide coupling
- C3 saturation time (peptide above plasma level of C3) (C3 [12]): ~34 h
- detection in the vitreous at time points post-injection ([2]; single i.v.t. injection 0.5 mg): detected at day 14 post injection but not in later time points
- CL/F [13]: ~43.5 mL/min/kg
- Conc. (solubility in PBS) ([7]; PBS (pH 7.4)): 270 mg/mL
- pH of the peptide solution in PBS [7, 14]: 7
